Format in all cases: in vitro ADME, Alopecurus myosuroides
The subject of one data set is AmCYP01 (Seq ID 2). The data set can be described thus: Herbicide degradation in transgenic yeast cells expressing cytochrome P450 AmCYP01. The following applies: transgenic yeast cells (S. cerevisiae BJ5459) expressing AmCYP01, Seq ID 2, recovery of herbicide in reference to control, UPLC-MS/MS. The text has this:
(§1) The cDNA of CYP450 monooxygenase genes were synthesized with an optimized codon usage for yeast, cloned via uniqueBamHI-SalI restriction sites in the low copy pESC-ura expression vector (Agilent Technologies). Constructs were transformed into S. cerevisiae wild type strain BJ5459 (MATa ura3-5 trp lys2-801 leu2Δ1 his3Δ200 pep4Δ::HIS3 prb1Δ1.6R can1 GAL cir^+; ATCC 208284) using a Yeast Maker Transformation System from Clontech and verified by colony PCR. Positive clones were selected on minimal synthetic-defined media (SD) supplemented with appropriate dropout solution. The strain had no obvious phenotypes. Cells were induced in SG-Ura medium (same composition as SD but with galactose instead of glucose) for 24 h (Pompon et al., Methods in Enzymology 272:51-64 (1996); Urban et al., Eur. J. Biochem. 222:[…] (1994)). Optimal heterologous protein expression was assayed using Western Blot analysis.
(§2) 96 deep well growth plates (STARLAB GmbH) charged with 700 μL SDA medium are inoculated with the respective yeast strains from cryostock and incubated at 30° C., 400 rpm. After 48 h, an aliquot is transferred into a new plate with fresh SDA medium 400 rpm. After 4 h the cultures are spun down, the supernatant discarded and the pellets resuspended in 700 μL pre-warmed SGA media to induce protein expression at 30° C. and 400 rpm. After an incubation time of 24 h, 7 μL herbicide solution (500 μM DMSO stock solution) or solvent control is added to the yeast culture incubated for additional 24 h. The herbicide conversion is stopped by adding 700 μL acetonitrile followed by ultrasonification. The homogenate is prepared for UPLC-MS/MS analysis. The degradation rate was calculated by the determination of the recovery of the herbicide in reference to the control.

In the next data set the test system is AmCYP03_1 (Seq ID 4). Description: Herbicide degradation in transgenic yeast cells expressing cytochrome P450 AmCYP03_1. The following applies: transgenic yeast cells (S. cerevisiae BJ5459) expressing AmCYP03_1, Seq ID 4, recovery of herbicide in reference to control, UPLC-MS/MS.
Description: as §1, §2

The next data set relates to AmCYP03b (Seq ID 6). Description: Herbicide degradation in transgenic yeast cells expressing cytochrome P450 AmCYP03b. The following applies: transgenic yeast cells (S. cerevisiae BJ5459) expressing AmCYP03b, recovery of herbicide in reference to control, UPLC-MS/MS.
Description: as §1, §2

For the next data set, the system named is AmCYP04 (Seq ID 27). The data set can be described thus: Herbicide degradation in transgenic yeast cells expressing cytochrome P450 AmCYP04. Particulars: transgenic yeast cells (S. cerevisiae BJ5459) expressing AmCYP04, Seq ID 27, recovery of herbicide in reference to control, UPLC-MS/MS.
Description: as §1, §2

In another data set the test system is AmCYP12_1 (Seq ID 45). Description: Herbicide degradation in transgenic yeast cells expressing cytochrome P450 AmCYP12_1. The following applies: transgenic yeast cells (S. cerevisiae BJ5459) expressing AmCYP12_1, Seq ID 45, recovery of herbicide in reference to control, UPLC-MS/MS.
Description: as §1, §2

SMILES strings stand for the structures.

Turning to `O=S1(=O)Oc2cccnc2C(O)=C1c1c(Cl)cccc1C(F)(F)F` [Coumarone-derivative 4, 3-[2-chloro-6-(trifluoromethyl)phenyl]-2,2-dioxo-oxathiino[5,6-b]pyridin-4-ol], the “Degradation rate of listed herbicidal compounds within 24 h” value (from here on “Degradation rate”) came to 0 with AmCYP01 (Seq ID 2); 4 in the data set on AmCYP03_1 (Seq ID 4); 7 in the data set with AmCYP03b (Seq ID 6); 12 in the data set on AmCYP04 (Seq ID 27); 4 in the data set with AmCYP12_1 (Seq ID 45).

In the case of `CC1(C)c2cccnc2C(O)=C(c2ccc(Cl)nc2Cl)S1(=O)=O` [Coumarone-derivative 5, 7-(2,6-dichloro-3-pyridyl)-5,5-dimethyl-6,6-dioxo-thiopyrano[4,3-b]pyridin-8-ol], the “Degradation rate” value in the data set with AmCYP01 (Seq ID 2) was determined as 14; in the data set with AmCYP03_1 (Seq ID 4), 2; in the data set with AmCYP03b (Seq ID 6) it was 17; in the data set with AmCYP04 (Seq ID 27), 22; in the data set with AmCYP12_1 (Seq ID 45), 15.

In the case of `CN(c1c(Cl)ccc(C2=C(O)c3ncccc3C(C)(C)S2(=O)=O)c1Cl)S(C)(=O)=O` [Coumarone-derivative 10, N-[2,6-dichloro-3-(8-hydroxy-5,5-dimethyl-6,6-dioxo-thiopyrano[4,3-b]pyridin-7-yl)phenyl]-N-methyl-methanesulfonamide], the “Degradation rate” value is recorded as 0 in the data set with AmCYP01 (Seq ID 2); 15 in the data set on AmCYP03_1 (Seq ID 4); 9 in the data set with AmCYP03b (Seq ID 6); 19 in the data set on AmCYP04 (Seq ID 27); 0 with AmCYP12_1 (Seq ID 45).

Turning to `O=S1(=O)C(c2c(Cl)cc(Cl)nc2Cl)=C(O)c2ncccc2N1CC(F)F` [Coumarone-derivative 1, 1-(2,2-difluoroethyl)-2,2-dioxo-3-(2,4,6-trichloro-3-pyridyl)pyrido[3,2-c]thiazin-4-ol], the “Degradation rate” value with AmCYP01 (Seq ID 2) is given as 0; in the data set on AmCYP03_1 (Seq ID 4) it was 25; with AmCYP03b (Seq ID 6), 18; in the data set on AmCYP04 (Seq ID 27) it was 31; in the data set with AmCYP12_1 (Seq ID 45), 10.

For `CC1=NOC(c2c(Cl)ccc(C3=C(O)c4ncccc4C(C)(C)S3(=O)=O)c2Cl)C1` (stereo not drawn) [Coumarone-derivative 6, 7-[2,4-dichloro-3-(3-methyl-4,5-dihydroisoxazol-5-yl)phenyl]-5,5-dimethyl-6,6-dioxo-thiopyrano[4,3-b]pyridin-8-ol], the “Degradation rate” value in the data set with AmCYP01 (Seq ID 2) was 1; in the data set with AmCYP03_1 (Seq ID 4), 2; with AmCYP03b (Seq ID 6) it was 0; in the data set with AmCYP04 (Seq ID 27), 0; in the data set on AmCYP12_1 (Seq ID 45), 4.

For the compound `CCC(CC)Nc1c([N+](=O)[O-])cc(C)c(C)c1[N+](=O)[O-]` [pendimethalin, reference compound], the “Degradation rate” value with AmCYP01 (Seq ID 2) came to 13; with AmCYP03_1 (Seq ID 4) it was 24; with AmCYP03b (Seq ID 6) it was 24; with AmCYP04 (Seq ID 27), 25; in the data set on AmCYP12_1 (Seq ID 45), 16.

For `Cc1c(Cl)ccc(Cl)c1C1=C(O)c2ncccc2C(C)(C)S1(=O)=O` [Coumarone-derivative 11, 7-(3,6-dichloro-2-methyl-phenyl)-5,5-dimethyl-6,6-dioxo-thiopyrano[4,3-b]pyridin-8-ol], the “Degradation rate” value is 0 in the data set with AmCYP01 (Seq ID 2); 0 in the data set with AmCYP03_1 (Seq ID 4); 18 with AmCYP03b (Seq ID 6); 0 with AmCYP04 (Seq ID 27); 0 with AmCYP12_1 (Seq ID 45).

For the compound `O=S1(=O)C(c2c(Cl)cc(Cl)nc2Cl)=C(O)c2ncccc2N1CC(F)F` [Coumarone-derivative 9, 1-(2,2-difluoroethyl)-2,2-dioxo-3-(2,4,6-trichloro-3-pyridyl)pyrido[3,2-c]thiazin-4-ol], the “Degradation rate” value with AmCYP01 (Seq ID 2) was 0; with AmCYP03_1 (Seq ID 4), 12; with AmCYP03b (Seq ID 6) it was 5; in the data set with AmCYP04 (Seq ID 27) it was 18; in the data set on AmCYP12_1 (Seq ID 45), 0.

As to `N#Cc1ccc(C2=C(O)c3ncccc3N(CC(F)F)S2(=O)=O)c(C(F)(F)F)c1` [Coumarone-derivative 2, 4-[1-(2,2-difluoroethyl)-4-hydroxy-2,2-dioxo-pyrido[3,2-c]thiazin-3-yl]-3-(trifluoromethyl)benzonitrile], the “Degradation rate” value is on record as 0 in the data set with AmCYP01 (Seq ID 2); 16 in the data set on AmCYP03_1 (Seq ID 4); 7 with AmCYP03b (Seq ID 6); 0 in the data set with AmCYP04 (Seq ID 27); 24 in the data set on AmCYP12_1 (Seq ID 45).

As to `O=S1(=O)Cc2cccnc2C(O)=C1c1ccccc1C(F)(F)F` [Coumarone-derivative 3, 6,6-dioxo-7-[2-(trifluoromethyl)phenyl]-5H-thiopyrano[4,3-b]pyridin-8-ol], the “Degradation rate” value with AmCYP01 (Seq ID 2) is recorded as 0; in the data set with AmCYP03_1 (Seq ID 4) it was 0; in the data set on AmCYP03b (Seq ID 6) it was 0; with AmCYP04 (Seq ID 27), 9; in the data set with AmCYP12_1 (Seq ID 45) it was 27.

Consider `COc1ccc(C2=C(O)c3ncccc3C(C)(C)S2(=O)=O)c(C(F)(F)F)n1` [Coumarone-derivative 8, 7-[6-methoxy-2-(trifluoromethyl)-3-pyridyl]-5,5-dimethyl-6,6-dioxo-thiopyrano[4,3-b]pyridin-8-ol], for which the “Degradation rate” value in the data set with AmCYP01 (Seq ID 2) is given as 0; in the data set with AmCYP03_1 (Seq ID 4), 10; in the data set on AmCYP03b (Seq ID 6), 0; in the data set with AmCYP04 (Seq ID 27), 0; with AmCYP12_1 (Seq ID 45) it was 3.

Consider `COCCOCc1c(Cl)ccc(C2=C(O)c3ncccc3C(C)(C)S2(=O)=O)c1Cl` [Coumarone-derivative 7, 7-[2,4-dichloro-3-(2-methoxyethoxymethyl)phenyl]-5,5-dimethyl-6,6-dioxo-thiopyrano[4,3-b]pyridin-8-ol], for which the “Degradation rate” value is reported as 0 with AmCYP01 (Seq ID 2); 14 in the data set with AmCYP03_1 (Seq ID 4); 6 in the data set on AmCYP03b (Seq ID 6); 7 in the data set on AmCYP04 (Seq ID 27); 5 with AmCYP12_1 (Seq ID 45).
